Results from US7741472B2, “Polynucleotide containing a phosphate mimetic” (Roche Diagnostics Operations, Inc., priority 2005, dated 2010).
Strand notation (5' to 3'): a small letter for the sugar, then the base; units joined by * are phosphorothioate-linked, units joined directly phosphodiester-linked; [ ] holds rarer units or linkages, { } end groups; capitals alone tell only the bases. [PNAc] = P=N-pPh-NAc phosphoramidate mimetic linkage (p1); {Fluorescein} = fluorescein label; d = 2'-deoxy (DNA)

Columns and labels:
factor V DNA = experiment: Real time PCR of factor V DNA with modified FRET donor probes (crossing point); type: biochemical; conditions: LIGHTCYCLER 1.2, 106 copies of plasmid, 200 nM FRET probes, 640 nm channel
Experimental: (§1) A quantitative real time PCR of factor V DNA with subsequent melting curve analysis was carried out on a LIGHTCYCLER 1.2 instrument (Roche Diagnostics GmbH) in order to analyse the effect of phosphate mimetics on hybridization. Primers were used in combination with a pair of fluorescein/LIGHTCYCLER Red 640 FRET hybridization probes. The primers and the 5′ LIGHTCYCLER Red 640 probe were kept constant. The various 3′ fluorescein probes modified on the phosphate from example 4 and the unmodified fluorescein probe as a reference were used as FRET donor probes. The effect on the crossing point which is a measure for the amplification efficiency and the effect on the melting point were evaluated.
20 μl of a PCR reaction mixture was prepared as follows for the amplification of a factor V DNA fragment.
106 copies of a plasmid which contains the factor V wild type gene and mutants (Gene Bank Accession No. M 014335)
500 nM each primers having the SEQ ID NO: 1 and 2
200 nM each FRET hybridization probes having the SEQ ID NO: 3 and 4
The LIGHTCYCLER DNA Master Hyb Probes Kit (Roche Applied Science, Cat. No. 2158825) was used for all other PCR components according to the manufacturer's instructions.
The following sequences were used as primers and probes: […]
The following temperature program was used for the amplification on the LIGHTCYCLER 1.2 (Roche Applied Science).
(§2) The real time monitoring was carried out over 45 cycles using the 2nd derivative threshold method in which the fluorescence signal was measured in a detection channel that is specific for the LIGHTCYCLER Red 640 emission (at 640 nm) and the arithmetic background correction mode was used to normalize the initial signal.
(§3) The crossing points are shown in the following table as a measure for the amplification efficiency when using different modified donor probes.

[1] = tested on: factor V wild type sequence; experiment: Melting curve analysis of donor probes, wild type; type: binding; conditions: melting temperature of donor probe for factor V wild type sequence; in °C (unit assumed)
Experimental: as §1
After the amplification a melting curve analysis was carried out according to the instructions of the LIGHTCYCLER manual (Roche Applied Sciences).
(§4) The following temperature program was used:
(§5) The absolute fluorescence signals are measured as above in the 640 nm channel and subsequently the first derivative was calculated from this.
as §3

factor V mutant sequence = experiment: Melting curve analysis of donor probes, mutant; type: binding; conditions: melting temperature of donor probe for factor V mutant sequence; in °C (unit assumed)
Experimental: as §1, with “LIGHTCYCLER” left out, “fluorescein/[…]” for “fluorescein/LIGHTCYCLER”, “The various 3′ fluorescein probes modified on the phosphate from example 4 and the unmodified fluorescein probe as a reference were used as FRET donor probes.” left out
After the amplification a melting curve analysis was carried out according to the instructions of the […] manual (Roche Applied Sciences).
as §4, §5

[2] = Stability of dinucleotides at different temperatures and pH, reverse phase HPLC; type: physicochemical; conditions: for stability: pH 7.0, 8.0 and 9.0, 24 h at rt, 1 h at 95° C.
Experimental: dA(P(═NSO2PhNHAc)dT was synthesized and purified according to example 1) dAdT was also synthesized according to example 1, but standard oxidizers were used (0.02 M iodine in THF).
The dimers were exposed for different times and temperatures in 10 mM Tris buffer at different pH values 7.0, 8.0, and 9.0. Samples were left at room temperature (approx. 24° C.) for 24 h or at 95° C. for 60 min respectively 16 h. 150 μL aliquots were removed before and after the experiment and 100 μL volumes were injected on the HPLC.
The decomposition was monitored by reverse phase HPLC on an analytical X-Bridge column (2.5 μm, 4.6×50 mm i.d.) with a Waters 2690 separation module. Detection was carried out with a Waters 2996 PAD Detector (260 nm). A mobile phase of 0.1 M triethylammonium acetate (pH 6.8) pumped with a 95% gradient of acetonitrile at flow rate of 1.0 ml/min was used. The destruction rate of the dimers was judged by monitoring the retention time rt of the dimer signal (Software Millenium, Waters) and determining whether additional peaks with retention times different than that, of the nucleotide dimer occur.

human Factor V DNA = experiment: Real time PCR with modified primers (crossing point); type: biochemical; conditions: LIGHTCYCLER 1.2, primer combinations SEQ ID NO: 1 / SEQ ID NO: 2, 640 nm channel
Experimental: A quantitative real time PCR of human Factor V DNA was carried out on a LIGHTCYCLER 1.2 instrument (Roche Diagnostics GmbH) in order to analyse the effect of phosphate mimetics on primer elongation. The P═N-pPh-NAc mimetic which was introduced at different positions of a primer pair used for amplification of human Factor V DNA. The modified primers were, synthesized according to example 4. Purification was done by the Reversed Phase chromatography of example 3 in the Trityl on mode. Detritylation was performed by treating with 80% acetic acid for 20 min.
This primers were used in combination with a pair of fluorescein/LIGHTCYCLER Red 640 FRET hybridization probes according to example 6. The Fluorescein probe and the 5′ LIGHTCYCLER Red 640 probe (SEQ ID NO: 3 and 4) were kept constant. Various combinations of modified and unmodified primers were tested. As reference unmodified primers were used. The effect on the crossing point which is a measure for the amplification efficiency was evaluated.
as §2, with “which,” for “which”
The absolute fluorescence signals are measured as above in the 640 nm channel and subsequently the first derivative was calculated from this. The crossing points are shown in the following table as a measure for the amplification efficiency when using different modified primers.

[3] = pH 7.0, 10 mM Tris, 1 h at 95° C. (dry oven)
[4] = pH 7.0, 10 mM Tris, 16 h at 95° C. (dry oven)
[5] = pH 7.0, 10 mM Tris, 24 h at rt (24° C.)
[6] = pH 7.0, 10 mM Tris, starting solution
[7] = pH 8.0, 10 mM Tris, 1 h at 95° C. (dry oven)
[8] = pH 8.0, 10 mM Tris, 16 h at 95° C. (dry oven)
[9] = pH 8.0, 10 mM Tris, 24 h at rt (24° C.)
[10] = pH 8.0, 10 mM Tris, starting solution
[11] = pH 9.0, 10 mM Tris, 1 h at 95° C. (dry oven)
[12] = pH 9.0, 10 mM Tris, 16 h at 95° C. (dry oven)
[13] = pH 9.0, 10 mM Tris, 24 h at rt (24° C.)
[14] = pH 9.0, 10 mM Tris, starting solution

With “5′ Ap1Ap1Tp1Ap1Cp1Cp1Tp1Gp1Tp1Ap1Tp1TCCTCGCCTGTC-fluorescein-3′: Example 4 fluorescein probe SEQ ID NO: 4, multiply modified; p1 is a P = N-pPh-NAc mimetic (DNA dA[PNAc]dA[PNAc]dT[PNAc]dA[PNAc]dC[PNAc]dC[PNAc]dT[PNAc]dG[PNAc]dT[PNAc]dA[PNAc]dT[PNAc]dTdCdCdTdCdGdCdCdTdGdTdC-{Fluorescein})” the “Cp (crossing point, measure for the amplification efficiency)” value (“Cp” for short) (factor V DNA) was 21.40, the Tm wt [1] was 60.69 and the Tm mt (factor V mutant sequence) was 52.19.
In the case of “dA(P(═NSO2PhNHAc)dT [dA(P(=NSO2PhNHAc)dT]”, the decomposition ([2]; after 16 h at 95° C. at pH 7.0) is reported as “started decomposing”, the “rtHPLC (retention time of the dimer signal)” value (“rtHPLC” for short) [2, 3] is reported as “rtHPLC = 2.99” and the “additional peaks (decomposition)” value [2, 4] is reported as 2 new peaks t = 1.2, 2.0. For the same substance, the “rtHPLC” value [2, 4] was “rtHPLC = 2.99”, the “rtHPLC” value [2, 5] was “rtHPLC = 2.93” and the “rtHPLC” value [2, 6] was “rtHPLC = 2.93”. The stability [2] was “stable”, the “rtHPLC” value [2, 7] was “rtHPLC = 2.92” and the “rtHPLC” value [2, 8] was “rtHPLC = 2.92”. The “rtHPLC” value [2, 9] was “rtHPLC = 2.96”, the “rtHPLC” value [2, 10] was “rtHPLC = 2.96” and the “rtHPLC” value [2, 11] was “rtHPLC = 2.95”. For the same substance, the “rtHPLC” value [2, 12] was “rtHPLC = 2.95”, the “rtHPLC” value [2, 13] was “rtHPLC = 2.92” and the “rtHPLC” value [2, 14] was “rtHPLC = 2.92”.
For “5′ AATACCTGp1TATTCCTCp1GCCTGTC-fluorescein-3′: Example 4 fluorescein probe SEQ ID NO: 4, two-fold modified; p1 is a P = N-pPh-NAc mimetic (DNA dAdAdTdAdCdCdTdG[PNAc]dTdAdTdTdCdCdTdC[PNAc]dGdCdCdTdGdTdC-{Fluorescein})”, the “Cp” value (factor V DNA) was 22.26, the Tm wt [1] was 64.28 and the Tm mt (factor V mutant sequence) was 55.89.
In the case of “5′ AATACCTGTATTCCTCGCCTGTp1C fluorescein-3′: Example 4 fluorescein probe SEQ ID NO: 4; p1 is a P = N-pPh-NAc mimetic (DNA dAdAdTdAdCdCdTdGdTdAdTdTdCdCdTdCdGdCdCdTdGdT[PNAc]dC-{Fluorescein})”, the “Cp” value (factor V DNA) is reported as 22.61, the Tm wt [1] is reported as 64.32 and the Tm mt (factor V mutant sequence) is reported as 56.26.
With “5′ Ap1Ap1Tp1ACCTGTATp1Tp1Cp1CTCGCCTp1Gp1Tp1C-fluorescein-3′: Example 4 fluorescein probe SEQ ID NO: 4, multiply modified; p1 is a P = N-pPh-NAc mimetic (DNA dA[PNAc]dA[PNAc]dT[PNAc]dAdCdCdTdGdTdAdT[PNAc]dT[PNAc]dC[PNAc]dCdTdCdGdCdCdT[PNAc]dG[PNAc]dT[PNAc]dC-{Fluorescein})” the “Cp” value (factor V DNA) was 22.00, the Tm wt [1] was 61.40 and the Tm mt (factor V mutant sequence) was 52.83.
With “5′ AATACCTGTATTp1Cp1Cp1Tp1Cp1Gp1Cp1Cp1Tp1Gp1Tp1C-fluorescein-3′: Example 4 fluorescein probe SEQ ID NO: 4, multiply modified; p1 is a P = N-pPh-NAc mimetic (DNA dAdAdTdAdCdCdTdGdTdAdTdT[PNAc]dC[PNAc]dC[PNAc]dT[PNAc]dC[PNAc]dG[PNAc]dC[PNAc]dC[PNAc]dT[PNAc]dG[PNAc]dT[PNAc]dC-{Fluorescein})” the “Cp” value (factor V DNA) was 21.91, the Tm wt [1] was 60.74 and the Tm mt (factor V mutant sequence) was 52.14.
For “5′ Ap1ATACCTGTATTCCTCGCCTGTC fluorescein-3′: Example 4 fluorescein probe SEQ ID NO: 4; p1 is a P = N-pPh-NAc mimetic (DNA dA[PNAc]dAdTdAdCdCdTdGdTdAdTdTdCdCdTdCdGdCdCdTdGdTdC-{Fluorescein})”, the “Cp” value (factor V DNA) was 22.51, the Tm wt [1] was 64.80 and the Tm mt (factor V mutant sequence) was 56.80.
In the case of “5′ GAGAGACATCGCCTCTGGGCTA / 5′ TGTTATCACACTGGTGCTAA: unmodified primer pair SEQ ID NO: 1 and 2, used as reference (DNA 1 GAGAGACATCGCCTCTGGGCTA; DNA 2 TGTTATCACACTGGTGCTAA; unmodified DNA) [reference compound]”, the “Cp” value (human Factor V DNA) is reported as 20.36.
In the case of “5′ GAGAGACATCGCCTCTGGGCTA / 5′ TGT TAT CAC ACT p1GGT GCT AA: primer combination; p1 is a P = N-pPh-NAc mimetic”, the “Cp” value (human Factor V DNA) is reported as 21.36.
In the case of dAdT, the decomposition ([2]; after 16 h at pH 7.0 and pH 8.0) is reported as “started decomposing”, the “rtHPLC” value [2, 3] is reported as “rtHPLC = 2.48” and the “additional peaks (decomposition)” value [2, 4] is reported as 1 new peak t = 6.2. For the same substance, the “rtHPLC” value [2, 4] was “rtHPLC = 2.42”, the “rtHPLC” value [2, 5] was “rtHPLC = 2.39” and the “rtHPLC” value [2, 6] was “rtHPLC = 2.39”. The stability [2] was “stable”, the “rtHPLC” value [2, 7] was “rtHPLC = 2.42” and the “additional peaks (decomposition)” value [2, 8] was 1 new peak 6.2. The “rtHPLC” value [2, 8] was “rtHPLC = 2.41”, the “rtHPLC” value [2, 9] was “rtHPLC = 2.38” and the “rtHPLC” value [2, 10] was “rtHPLC = 2.38”. For the same substance, the “rtHPLC” value [2, 11] was “rtHPLC = 2.42”, the “rtHPLC” value [2, 12] was “rtHPLC = 2.43” and the “rtHPLC” value [2, 13] was “rtHPLC = 2.41”. For the same substance, the “rtHPLC” value [2, 14] was “rtHPLC = 2.41”.
In the case of “5′ AATACCTGTATTCCTCGCCTGTC-fluorescein-3′ (ref): unmodified fluorescein FRET donor probe SEQ ID NO: 4, used as a reference (DNA dAdAdTdAdCdCdTdGdTdAdTdTdCdCdTdCdGdCdCdTdGdTdC-{Fluorescein}) [reference compound]”, the “Cp” value (factor V DNA) is reported as 22.11, the Tm wt [1] is reported as 64.92 and the Tm mt (factor V mutant sequence) is reported as 56.98.
